Test results published in patent US11919888B2, “Neprilysin inhibitors” (THERAVANCE BIOPHARMA R&D IP, LLC, priority 2012, dated 2024).

Biological target: T1, human NEP (Homo sapiens, UniProt P08473)
T1 construct: purchased R&D Systems, Minneapolis, MN 1182-ZN
Experiment: In vitro enzyme inhibition assay at human NEP (fluorogenic peptide substrate)
Assay type: biochemical
Details: recombinant human NEP; 10 μM fluorogenic substrate Mca-D-Arg-Arg-Leu-Dap-(Dnp)-OH; 37° C.; 30 minute preincubation; read-out: pKi value at human NEP (converted)
Description: In Vitro Assays for the Quantitation of Inhibitor Potencies (IC50) at Human and Rat NEP, and Human ACE
The inhibitory activities of compounds at human and rat neprilysin (EC 3.4.24.11; NEP) and human angiotensin converting enzyme (ACE) were determined using in vitro assays as described below.
Recombinant human NEP and recombinant human ACE were obtained commercially (R&D Systems, Minneapolis, MN, catalog numbers 1182-ZN and 929-ZN, respectively). The fluorogenic peptide substrate Mca-D-Arg-Arg-Leu-Dap-(Dnp)-OH (Medeiros et al. (1997) Braz. J. Med. Biol. Res. 30:1157-62; Anaspec, San Jose, CA) and Abz-Phe-Arg-Lys(Dnp)-Pro-OH (Araujo et al. (2000) Biochemistry 39:8519-8525; Bachem, Torrance, CA) were used in the NEP and ACE assays respectively.
The assays were performed in 384-well white opaque plates at 37° C. using the fluorogenic peptide substrates at a concentration of 10 μM in Assay Buffer (NEP: 50 mM HEPES, pH 7.5, 100 mM NaCl, 0.01% polyethylene glycol sorbitan monolaurate (Tween-20), 10 μM ZnSO4; ACE: 50 mM HEPES, pH 7.5, 100 mM NaCl, 0.01% Tween-20, 1 μM ZnSO4).
Test compounds were assayed over the range of concentrations from 10 μM to 20 pM. Test compounds were added to the enzymes and incubated for 30 minute at 37° C. prior to initiating the reaction by the addition of substrate. Reactions were terminated after 20 minutes of incubation at 37° C. by the addition of glacial acetic acid to a final concentration of 3.6% (v/v).
Plates were read on a fluorometer with excitation and emission wavelengths set to 320 nm and 405 nm, respectively. Inhibition constants were obtained by nonlinear regression of the data using the equation (GraphPad Software, Inc., San Diego, CA): ν=ν0/[1+(I/K′)] where ν is the reaction rate, ν0 is the uninhibited reaction rate, I is the inhibitor concentration and K′ is the apparent inhibition constant.

T1 sequence (P08473 52-750 limits assumed): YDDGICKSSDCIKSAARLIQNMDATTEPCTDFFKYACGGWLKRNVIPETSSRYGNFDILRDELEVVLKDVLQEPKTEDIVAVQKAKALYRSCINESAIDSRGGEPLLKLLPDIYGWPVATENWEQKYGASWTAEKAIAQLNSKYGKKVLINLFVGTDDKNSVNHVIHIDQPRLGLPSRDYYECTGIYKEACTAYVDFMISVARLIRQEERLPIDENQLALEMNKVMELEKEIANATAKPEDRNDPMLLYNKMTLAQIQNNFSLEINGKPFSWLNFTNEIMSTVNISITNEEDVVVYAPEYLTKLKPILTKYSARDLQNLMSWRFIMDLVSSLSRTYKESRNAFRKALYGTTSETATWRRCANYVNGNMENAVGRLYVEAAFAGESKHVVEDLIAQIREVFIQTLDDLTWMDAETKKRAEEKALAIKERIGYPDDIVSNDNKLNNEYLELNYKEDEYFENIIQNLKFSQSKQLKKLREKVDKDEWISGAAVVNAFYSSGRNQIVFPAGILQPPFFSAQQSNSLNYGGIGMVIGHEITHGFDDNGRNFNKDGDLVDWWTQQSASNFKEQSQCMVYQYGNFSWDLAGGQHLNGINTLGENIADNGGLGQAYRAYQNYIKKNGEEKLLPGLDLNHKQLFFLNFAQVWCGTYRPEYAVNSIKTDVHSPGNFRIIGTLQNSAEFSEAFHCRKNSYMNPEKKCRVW

Row | SMILES | Ki [nM]
1 | COc1cc(C(=O)N[C@H](Cc2ccc(-c3cccc(Cl)c3)cc2)C[C@@](C)(CO)C(=O)O)on1 [Example 6A, (2S,4R)-5-(3′-Chlorobiphenyl-4-yl)-2-hydroxymethyl-4-[(3-methoxyisoxazole-5-carbonyl)amino]-2-methylpentanoic Acid] | ≤ 1
2 | COc1cc(C(=O)N[C@H](Cc2ccc(-c3cc(Cl)ccc3F)cc2)C[C@@](C)(CO)C(=O)O)on1 [Example 6G, (2S,4R)-5-(5′-Chloro-2′-fluorobiphenyl-4-yl)-2-hydroxymethyl-4-[(3-methoxyisoxazole-5-carbonyl)amino]-2-methylpentanoic Acid] | ≤ 1
3 | CC(C)Cc1cc(C(=O)N[C@H](Cc2ccc(-c3cc(Cl)ccc3F)cc2)C[C@@](C)(CO)C(=O)O)on1 [Example 6I, (2S,4R)-5-(5′-Chloro-2′-fluorobiphenyl-4-yl)-2-hydroxymethyl-4-[(3-isobutylisoxazole-5-carbonyl)amino]-2-methylpentanoic Acid] | ≤ 1
4 | COC[C@](C)(C[C@@H](Cc1ccc(-c2cc(Cl)ccc2F)cc1)NC(=O)c1cc(O)no1)C(=O)O [Example 6K, (2S,4R)-5-(5′-Chloro-2′-fluorobiphenyl-4-yl)-4-[(3-hydroxyisoxazole-5-carbonyl)amino]-2-methoxymethyl-2-methylpentanoic Acid] | 1 to 3.16
5 | CCOC[C@](C)(C[C@@H](Cc1ccc(-c2cccc(Cl)c2)cc1)NC(=O)c1cc(O)no1)C(=O)O [Example 6M] | ≤ 1
6 | CCOc1cc(C(=O)N[C@H](Cc2ccc(-c3cccc(Cl)c3)cc2)C[C@@](C)(CO)C(=O)O)n[nH]1 [Example 7A, (2S,4R)-5-(3′-Chlorobiphenyl-4-yl)-4-[(5-ethoxy-1H-pyrazole-3-carbonyl)amino]-2-hydroxymethyl-2-methylpentanoic Acid] | ≤ 1
7 | CCOc1cc(C(=O)N[C@H](Cc2ccc(-c3cc(Cl)ccc3F)cc2)C[C@@](C)(COC)C(=O)O)[nH]n1 [Example 7D, (2S,4R)-5-(5′-Chloro-2′-fluorobiphenyl-4-yl)-4-[(5-ethoxy-2H-pyrazole-3-carbonyl)-amino]-2-methoxymethyl-2-methylpentanoic Acid] | 1 to 3.16
8 | COc1cc(C(=O)N[C@H](Cc2ccc(-c3cc(Cl)ccc3F)cc2)C[C@@](C)(CO)C(=O)O)n[nH]1 [Example 7E, (2S,4R)-5-(5′-Chloro-2′-fluorobiphenyl-4-yl)-2-hydroxymethyl-4-[(5-methoxy-1H-pyrazole-3-carbonyl)amino]-2-methylpentanoic Acid] | ≤ 1
9 | CC(C)Cc1cc(C(=O)N[C@H](Cc2ccc(-c3cc(Cl)ccc3F)cc2)C[C@@](C)(CO)C(=O)O)[nH]n1 [Example 7F, (2S,4R)-5-(5′-Chloro-2′-fluorobiphenyl-4-yl)-2-hydroxymethyl-4-[(5-isobutyl-2H-pyrazole-3-carbonyl)amino]-2-methylpentanoic Acid] | ≤ 1
10 | CC(=O)c1cc(C(=O)N[C@H](Cc2ccc(-c3cc(Cl)ccc3F)cc2)C[C@@](C)(CO)C(=O)O)[nH]n1 [Example 8A, (2S,4R)-4-[(5-Acetyl-2H-pyrazole-3-carbonyl)amino]-5-(5′-chloro-2′-fluorobiphenyl-4-yl)-2-hydroxymethyl-2-methylpentanoic Acid] | ≤ 1
11 | COC[C@](C)(C[C@@H](Cc1ccc(-c2cc(Cl)ccc2F)cc1)NC(=O)c1cc(C(C)=O)n[nH]1)C(=O)O [Example 8B, (2S,4R)-4-[(5-Acetyl-2H-pyrazole-3-carbonyl)amino]-5-(5′-chloro-2′-fluorobiphenyl-4-yl)-2-methoxymethyl-2-methylpentanoic Acid] | 1 to 3.16
12 | CCOC[C@](C)(C[C@@H](Cc1ccc(-c2cc(Cl)ccc2F)cc1)NC(=O)c1cc(C(C)=O)[nH]n1)C(=O)O [Example 8C, (2S,4R)-4-[(5-Acetyl-1H-pyrazole-3-carbonyl)amino]-5-(5′-chloro-2′-fluorobiphenyl-4-yl)-2-ethoxymethyl-2-methylpentanoic Acid] | ≤ 1

The next lines start with the values.

Row | Ki [nM] | SMILES
13 | ≤ 1 | C[C@@](CO)(C[C@@H](Cc1ccc(-c2cc(Cl)ccc2F)cc1)NC(=O)c1coc(=O)[nH]1)C(=O)O [Example 5C, (2S,4R)-5-(5′-Chloro-2′-fluorobiphenyl-4-yl)-2-hydroxymethyl-2-methyl-4-[(2-oxo-2,3-dihydro-oxazole-4-carbonyl)amino]pentanoic Acid]
14 | ≤ 1 | C[C@@](CO)(C[C@@H](Cc1ccc(-c2cc(Cl)ccc2F)cc1)NC(=O)c1c[nH]c(=O)o1)C(=O)O [Example 5D, (2S,4R)-5-(5′-Chloro-2′-fluorobiphenyl-4-yl)-2-hydroxymethyl-2-methyl-4-[(2-oxo-2,3-dihydro-oxazole-5-carbonyl)amino]pentanoic Acid]
15 | 10 to 100 | COC[C@](C)(C[C@@H](Cc1ccc(-c2cccc(Cl)c2)cc1)NC(=O)c1cc(OC)no1)C(=O)O [Example 6B, (2S,4R)-5-(3′-Chlorobiphenyl-4-yl)-4-[(3-methoxyisoxazole-5-carbonyl)amino]-2-methoxymethyl-2-methylpentanoic Acid]
16 | ≤ 1 | CCc1cc(C(=O)N[C@H](Cc2ccc(-c3cc(Cl)ccc3F)cc2)C[C@@](C)(CO)C(=O)O)on1 [Example 6H]
17 | ≤ 1 | CCCc1cc(C(=O)N[C@H](Cc2ccc(-c3cc(Cl)ccc3F)cc2)C[C@@](C)(CO)C(=O)O)on1 [Example 6J, (2S,4R)-5-(5′-Chloro-2′-fluorobiphenyl-4-yl)-2-hydroxymethyl-2-methyl-4-[(3-propylisoxazole-5-carbonyl)amino]pentanoic Acid]
18 | ≤ 1 | C[C@@](COCCO)(C[C@@H](Cc1ccc(-c2cccc(Cl)c2)cc1)NC(=O)c1cc(O)no1)C(=O)O [Example 6L, (2S,4R)-5-(3′-Chlorobiphenyl-4-yl)-2-(2-hydroxyethoxymethyl)-4-[(3-hydroxyisoxazole-5-carbonyl)amino]-2-methylpentanoic Acid]
19 | ≤ 1 | CCOC[C@](C)(C[C@@H](Cc1ccc(-c2cc(Cl)ccc2F)cc1)NC(=O)c1cc(O)no1)C(=O)O [Example 6N, (2S,4R)-5-(5′-Chloro-2′-fluorobiphenyl-4-yl)-2-ethoxymethyl-4-[(3-hydroxyisoxazole-5-carbonyl)amino]-2-methylpentanoic Acid]
20 | ≤ 1 | CCOC[C@](C)(C[C@@H](Cc1ccc(-c2cc(Cl)ccc2F)cc1)NC(=O)c1cc(CC)no1)C(=O)O [Example 6O, (2S,4R)-5-(5′-Chloro-2′-fluorobiphenyl-4-yl)-2-ethoxymethyl-4-[(3-ethylisoxazole-5-carbonyl)amino]-2-methylpentanoic Acid]
21 | ≤ 1 | CCOc1cc(C(=O)N[C@H](Cc2ccc(-c3cc(Cl)ccc3F)cc2)C[C@@](C)(CO)C(=O)O)n[nH]1 [Example 7B, (2S,4R)-5-(5′-Chloro-2′-fluorobiphenyl-4-yl)-4-[(5-ethoxy-1H-pyrazole-3-carbonyl)-amino]-2-hydroxymethyl-2-methylpentanoic Acid]
22 | ≤ 1 | CC(C)c1cc(C(=O)N[C@H](Cc2ccc(-c3cc(Cl)ccc3F)cc2)C[C@@](C)(CO)C(=O)O)[nH]n1 [Example 7C, (2S,4R)-5-(5′-Chloro-2′-fluorobiphenyl-4-yl)-2-hydroxymethyl-4-[(5-isopropyl-2H-pyrazole-3-carbonyl)amino]-2-methylpentanoic Acid]
